Several values for one entry are separate records, joined by “and”; a condition that tells them apart may be missing. Identical values can stand only once. Like-named read-outs stand apart in the source and are kept apart here.
Columns and labels:
[1] = Human radiation dosimetry estimates
[2] = tested on: PSMA+ PC3 PIP and PSMA− PC3 flu xenografts; conditions: for Biodistribution, Bladder (empty) / Biodistribution, Blood / Biodistribution, Bone / Biodistribution, Heart / Biodistribution, Kidney / Biodistribution, Liver / Biodistribution, Lung / Biodistribution, Muscle / Biodistribution, PSMA+ PIP tumor / Biodistribution, PSMA− flu tumor / Biodistribution, Pancreas / Biodistribution, Spleen / Biodistribution, Stomach / Biodistribution, lrg. Intest / Biodistribution, sm. Intest: iv, n = 4
[3] = human source organ, from mouse data

For `O=C(O)CCC(NC(=O)NC(CCCCNC(=O)c1ccc([18F])nc1)C(=O)O)C(=O)O` (centres unmarked) [[^18F]DCFPyL, 2-(3-{1-Carboxy-5-[(6-[^18F]fluoro-pyridine-3-carbonyl)-amino]-pentyl}-ureido)-pentanedioic acid], the “Absorbed dose, Total body” value ([1]; estimated human) was 5.71E-03 mGy/MBq, the Effective dose ([1]; estimated human) was 1.36E-02 mSv/MBq and the Effective dose equivalent ([1]; estimated human) was 1.80E-02 mSv/MBq. The “Absorbed dose, Adrenals” value ([1]; estimated human target organ) was 6.46E-03 mGy/MBq, the “Absorbed dose, Brain” value ([1]; estimated human target organ) was 4.84E-03 mGy/MBq and the “Absorbed dose, Breasts” value ([1]; estimated human target organ) was 3.97E-03 mGy/MBq. The “Absorbed dose, Gallbladder wall” value ([1]; estimated human target organ) was 6.48E-03 mGy/MBq, the “Absorbed dose, Heart wall” value ([1]; estimated human target organ) was 3.26E-03 mGy/MBq and the “Absorbed dose, Kidneys” value ([1]; estimated human target organ) was 0.05 mGy/MBq and 4.81E-02 mGy/MBq. The “Absorbed dose, Liver” value ([1]; estimated human target organ) was 7.38E-03 mGy/MBq, the “Absorbed dose, Lower large intestine wall” value ([1]; estimated human target organ) was 9.40E-03 mGy/MBq and the “Absorbed dose, Lungs” value ([1]; estimated human target organ) was 3.01E-03 mGy/MBq. The “Absorbed dose, Muscle” value ([1]; estimated human target organ) was 3.95E-03 mGy/MBq, the “Absorbed dose, Osteogenic cells” value ([1]; estimated human target organ) was 7.59E-03 mGy/MBq and the “Absorbed dose, Ovaries” value ([1]; estimated human target organ) was 9.06E-03 mGy/MBq. The “Absorbed dose, Pancreas” value ([1]; estimated human target organ) was 4.38E-03 mGy/MBq, the “Absorbed dose, Red marrow” value ([1]; estimated human target organ) was 5.35E-03 mGy/MBq and the “Absorbed dose, Skin” value ([1]; estimated human target organ) was 3.84E-03 mGy/MBq. The “Absorbed dose, Small intestine” value ([1]; estimated human target organ) was 7.53E-03 mGy/MBq, the “Absorbed dose, Spleen” value ([1]; estimated human target organ) was 6.57E-03 mGy/MBq and the “Absorbed dose, Stomach wall” value ([1]; estimated human target organ) was 5.27E-03 mGy/MBq. For the same molecule, the “Absorbed dose, Testes” value ([1]; estimated human target organ) was 7.06E-03 mGy/MBq, the “Absorbed dose, Thymus” value ([1]; estimated human target organ) was 4.43E-03 mGy/MBq and the “Absorbed dose, Thyroid” value ([1]; estimated human target organ) was 4.45E-03 mGy/MBq. For the same molecule, the “Absorbed dose, Upper large intestine wall” value ([1]; estimated human target organ) was 6.67E-03 mGy/MBq, the “Absorbed dose, Urinary bladder wall” value ([1]; estimated human target organ) was 0.15 mGy/MBq and 1.51E-01 mGy/MBq and the “Absorbed dose, Uterus” value ([1]; estimated human target organ) was 1.45E-02 mGy/MBq. The “Time-integrated activity coefficient, Urinary bladder contents” value ([1]; human source organ, dynamic voiding bladder model, one hour voiding interval) was 3.09E-01 MBq-h/MBq, the “Time-integrated activity coefficient, Heart wall” value [1, 3] was 3.97E-04 MBq-h/MBq and the “Time-integrated activity coefficient, Kidneys” value [1, 3] was 7.47E-02 MBq-h/MBq. For the same molecule, the “Time-integrated activity coefficient, Liver” value [1, 3] was 4.09E-02 MBq-h/MBq, the “Time-integrated activity coefficient, Lower large intestine” value [1, 3] was 4.23E-04 MBq-h/MBq and the “Time-integrated activity coefficient, Lungs” value [1, 3] was 3.52E-03 MBq-h/MBq. For the same molecule, the “Time-integrated activity coefficient, Muscle” value [1, 3] was 4.50E-02 MBq-h/MBq, the “Time-integrated activity coefficient, Pancreas” value [1, 3] was 1.48E-04 MBq-h/MBq and the “Time-integrated activity coefficient, Small intestine” value [1, 3] was 1.30E-03 MBq-h/MBq. For the same molecule, the “Time-integrated activity coefficient, Spleen” value [1, 3] was 2.98E-03 MBq-h/MBq, the “Time-integrated activity coefficient, Stomach” value [1, 3] was 3.36E-04 MBq-h/MBq and the “Time-integrated activity coefficient, Upper large intestine” value [1, 3] was 4.23E-04 MBq-h/MBq. The “Time-integrated activity coefficient, Remainder” value ([1]; human, remainder of body, from mouse data) was 8.51E-01 MBq-h/MBq, the “Biodistribution, Bladder (empty)” value ([2]; 30 min pi) was 18.6± 18.1 % ID/g and the “Biodistribution, Blood” value ([2]; 30 min pi) was 1.53±0.19 % ID/g. The “Biodistribution, Bone” value ([2]; 30 min pi) was 0.82 ±0.16 % ID/g, the “Biodistribution, Heart” value ([2]; 30 min pi) was 0.68 ±0.07 % ID/g and the “Biodistribution, Kidney” value ([2]; 30 min pi) was 74.1 ±6.6 % ID/g. The “Biodistribution, Liver” value ([2]; 30 min pi) was 3.88 ±0.74 % ID/g, the “Biodistribution, Lung” value ([2]; 30 min pi) was 1.91 ±0.47 % ID/g and the “Biodistribution, Muscle” value ([2]; 30 min pi) was 0.39 ±0.05 % ID/g. The “Biodistribution, PSMA+ PIP tumor” value ([2]; 30 min pi) was 46.7 ±5.8 % ID/g, the “Biodistribution, PSMA− flu tumor” value ([2]; 30 min pi) was 1.17 ±0.41 % ID/g and the “Biodistribution, Pancreas” value ([2]; 30 min pi) was 1.02 ±0.53 % ID/g. The “Biodistribution, Spleen” value ([2]; 30 min pi) was 7.59 ±3.56 % ID/g, the “Biodistribution, Stomach” value ([2]; 30 min pi) was 1.50±1.12 % ID/g and the “Biodistribution, lrg. Intest” value ([2]; 30 min pi) was 0.73 ±0.04 % ID/g. For the same molecule, the “Biodistribution, sm. Intest” value ([2]; 30 min pi) was 0.79 ±0.11 % ID/g, the “Biodistribution, Bladder (empty)” value ([2]; 60 min pi) was 9.88 ±4.92 % ID/g and the “Biodistribution, Blood” value ([2]; 60 min pi) was 0.24 ±0.05 % ID/g. For the same molecule, the “Biodistribution, Bone” value ([2]; 60 min pi) was 0.42 ±0.15 % ID/g, the “Biodistribution, Heart” value ([2]; 60 min pi) was 0.20 ±0.11 % ID/g and the “Biodistribution, Kidney” value ([2]; 60 min pi) was 42.3 ±19.0 % ID/g. For the same molecule, the “Biodistribution, Liver” value ([2]; 60 min pi) was 2.87 ±0.92 % ID/g, the “Biodistribution, Lung” value ([2]; 60 min pi) was 0.55 ±0.17 % ID/g and the “Biodistribution, Muscle” value ([2]; 60 min pi) was 0.61 ±0.92 % ID/g. The “Biodistribution, PSMA+ PIP tumor” value ([2]; 60 min pi) was 44.2 ±9.7 % ID/g, the “Biodistribution, PSMA− flu tumor” value ([2]; 60 min pi) was 0.36 ±0.14 % ID/g and the “Biodistribution, Pancreas” value ([2]; 60 min pi) was 0.26 ±0.13 % ID/g. For the same molecule, the “Biodistribution, Spleen” value ([2]; 60 min pi) was 2.70 ±1.28 % ID/g, the “Biodistribution, Stomach” value ([2]; 60 min pi) was 0.35 ±0.34 % ID/g and the “Biodistribution, lrg. Intest” value ([2]; 60 min pi) was 0.40 ±0.17 % ID/g. The “Biodistribution, sm. Intest” value ([2]; 60 min pi) was 0.31 ±0.12 % ID/g, the “Biodistribution, Bladder (empty)” value ([2]; 120 min pi) was 6.44 ±4.42 % ID/g and the “Biodistribution, Blood” value ([2]; 120 min pi) was 0.43 ±0.37 % ID/g. The “Biodistribution, Bone” value ([2]; 120 min pi) was 0.33 ±0.08 % ID/g, the “Biodistribution, Heart” value ([2]; 120 min pi) was 0.06 ±0.01 % ID/g and the “Biodistribution, Kidney” value ([2]; 120 min pi) was 15.7 ±3.3 % ID/g. The “Biodistribution, Liver” value ([2]; 120 min pi) was 2.1 % ID/g, the “Biodistribution, Lung” value ([2]; 120 min pi) was 0.18 ±0.02 % ID/g and the “Biodistribution, Muscle” value ([2]; 120 min pi) was 0.04 ±0.00 % ID/g. For the same molecule, the “Biodistribution, PSMA+ PIP tumor” value ([2]; 120 min pi) was 39.4 ±5.4 % ID/g, the “Biodistribution, PSMA− flu tumor” value ([2]; 120 min pi) was 0.11 ±0.02 % ID/g and the “Biodistribution, Pancreas” value ([2]; 120 min pi) was 0.08 ±0.00 % ID/g. For the same molecule, the “Biodistribution, Spleen” value ([2]; 120 min pi) was 0.69 ±0.11 % ID/g, the “Biodistribution, Stomach” value ([2]; 120 min pi) was 0.08 ±0.03 % ID/g and the “Biodistribution, lrg. Intest” value ([2]; 120 min pi) was 0.12 ±0.05 % ID/g. For the same molecule, the “Biodistribution, sm. Intest” value ([2]; 120 min pi) was 0.11 ±0.07 % ID/g, the “Biodistribution, Liver” value ([2]; 120 min pi, listed as [^18F]3) was 2.14±0.11 % ID/g and the “Biodistribution, Bladder (empty)” value ([2]; 240 min pi) was 1.54 ±1.79 % ID/g. For the same molecule, the “Biodistribution, Blood” value ([2]; 240 min pi) was 0.03 ±0.01 % ID/g, the “Biodistribution, Bone” value ([2]; 240 min pi) was 0.43 ±0.06 % ID/g and the “Biodistribution, Heart” value ([2]; 240 min pi) was 0.02 ±0.00 % ID/g. The “Biodistribution, Liver” value ([2]; 240 min pi) was 1.80 ±0.39 % ID/g, the “Biodistribution, Lung” value ([2]; 240 min pi) was 0.06 ±0.00 % ID/g and the “Biodistribution, Muscle” value ([2]; 240 min pi) was 0.05 ±0.05 % ID/g. For the same molecule, the “Biodistribution, PSMA+ PIP tumor” value ([2]; 240 min pi) was 36.6 ±4.3 % ID/g, the “Biodistribution, PSMA− flu tumor” value ([2]; 240 min pi) was 0.03 ±0.01 % ID/g and the “Biodistribution, Pancreas” value ([2]; 240 min pi) was 0.03 ±0.01 % ID/g. For the same molecule, the “Biodistribution, Spleen” value ([2]; 240 min pi) was 0.23 ±0.09 % ID/g, the “Biodistribution, Stomach” value ([2]; 240 min pi) was 0.02 ±0.00 % ID/g and the “Biodistribution, lrg. Intest” value ([2]; 240 min pi) was 0.06 ±0.01 % ID/g. The “Biodistribution, sm. Intest” value ([2]; 240 min pi) was 0.05 ±0.01 % ID/g, the “Biodistribution, Kidney” value ([2]; 240 min pi, listed as [^18F]3) was 7.42 ±0.89 % ID/g and the Bone uptake ([2]; at all time points) was < 1 % ID/g. The Non-target tissue uptake ([2]; at or after 1 h post-injection) was “minimal non-target tissue uptake” and the “Decrease of PSMA+ PC3 PIP xenograft uptake” value ([2]; from 30 min pi over the ensuing 4 h) was “about 10%”.

Reference: PMC3243762 (Clinical cancer research : an official journal of the …, 2011)
